Results taken from publication PMC10154249, “Unique progerin C-terminal peptide ameliorates Hutchinson–Gilford progeria syndrome phenotype by rescuing BUBR1” (Nature Aging, 2023).
“And” between values parts separate entries of the source, which are not always exact repeats. Equal entries are not always repeated.

Columns and labels:
[1] = system: SAC signal response (p-H3); test: Western blot of p-H3 (SAC signal response), nocodazole-treated HGADFN003 cells; assay type: cell-based, human; conditions: nocodazole 200 ng ml^–1 with UPCP
Method: Western blot was performed as previously described. Cells were lysed in 1× Laemmli sample buffer after washing twice in cold PBS without calcium and magnesium. Protein concentrations were determined using the bicinchoninic acid (BCA) protein assay. Protein lysates were subjected to SDS–PAGE, transferred to 0.45-μm pore size hydrophobic PVDF transfer membrane (Merck Millipore), detected with the appropriate primary antibodies coupled with horseradish peroxidase-conjugated corresponding secondary antibodies, and visualized using enhanced chemiluminescence ECL reagent (GE Healthcare). The Tanon 5500 high-definition low-illumination CCD system (Tanon FLI Capture v.1.02) was used to capture chemiluminescent signals.

IMR90 cells = test: Cell survival rate analysis in IMR90 cells; assay type: cell-based, human; conditions: Fig. 5o, 48h
Method: Cell viability was assessed using the Cell Counting Kit-8 (CCK8) (APE, catalog no. k1018). The cells were plated in triplicate in 96-well plates (typically 10,000 cells per 100 μl per well) and were incubated with fresh medium for 24 h. Then, the cells were incubated with different concentrations (0 μM, 10 μM, 20 μM, 30 μM) of UPCP for 0 h, 24 h, 48 h or 72 h. CCK8 solution (10 μl) was added to the well for a 2 h incubation at 37 °C. Absorbance was measured at 450 nm with a 96-well plate reader (Tecan Infinite M NANO^+). Data were analyzed and further processed in i-control v.2.0 and GraphPad Prism v.7.

Lmna^G609G/G609G mice = test: Bodyweight of Lmna^G609G/G609G mice; assay type: in vivo, mouse; conditions: 20 mg kg^–1 i.p. every other day from 14 days of age
Source text: All animal experiments were approved by the Ethics Committee of School of Life Sciences, Northeast Normal University, China (AP20191011) and carried out in accordance with the relevant guidelines: National Standards of the People’s Republic of China (GB/T 35892–2018), Laboratory Animal—Guideline for Ethical Review of Animal Welfare. We generated a mouse model (ICR background), carrying the Lmna^G609G using the BE4-Gam system. The protocols for the BE4-Gam system and microinjection of pronuclear-stage embryos have been described in detail previously[37],[38],[59]. Briefly, a mixture of BE4-Gam mRNA (200 ng μl^–1) and sgRNA-Lmna (30 ng μl^–1) was coinjected into the cytoplasm of pronuclear-stage embryos of the mouse. The injected embryos were transferred to embryo culture medium for 30–60 min, followed by transferring the injected embryos into the recipient mother. The embryos continued to develop and the founder mice (referred to as F0) were born: wild-type mice (Lmna^+/+), heterozygous mice (Lmna^G609G/+) and homozygous mice (Lmna^G609G/G609G). […]
For UPCP injection, 14-day-old Lmna^G609G/G609G mice were injected intraperitoneally with either PBS or UPCP (20 mg kg^–1, every other day) and wild-type mice were injected with PBS. […] Bodyweight and lifespan were monitored after UPCP treatment. The survival rate was analyzed by the Kaplan–Meier method. […]

[2] = system: heart of Lmna^G609G/G609G mice; test: Masson staining of heart (fibrosis); assay type: in vivo, mouse; conditions: 13 weeks
Method: For UPCP injection, 14-day-old Lmna^G609G/G609G mice were injected intraperitoneally with either PBS or UPCP (20 mg kg^–1, every other day) and wild-type mice were injected with PBS. […] Bodyweight and lifespan were monitored after UPCP treatment. The survival rate was analyzed by the Kaplan–Meier method. We only included mice that were of sufficient bodyweight at the start of the experiment, typically at least 80% of the average littermate weight of the same sex and genotype. All animals meeting criteria for inclusion were then divided randomly into three groups according to genotype (Lmna^+/+, Lmna^G609G/G609G-Mock and Lmna^G609G/G609G-UPCP).
For histological analyses, mice of the indicated genotypes were perfused with PBS, then with 4% paraformaldehyde (PFA). Whole organs were incubated in 4% PFA at 4 °C for 16 h. All samples were paraffin embedded and sectioning by Servicebio. Subsequently, the tissues were deparaffinized and rehydrated before hematoxylin-eosin (HE) or Masson staining or immunohistochemistry (IHC). HE staining was performed using an HE Kit (Absin, catalog no. abs9217), and Masson staining was performed using Masson’s Trichrome Stain Kit (Absin, catalog no. abs9347) according to the manufacturer’s instructions. The thickness of the layers or the areas of fibrosis in the tissues were calculated using ImageJ software by a blinded investigator. For IHC, the sections were completed by the Servicebio. The images were acquired by a microscope (Leica DMi8) and analyzed with Leica Application Suite X v.3.6.0.24 (Leica). For BubR1, cytoplasmic staining in cells was scored on the intensity of staining and the proportion of positive cells by a blinded investigator. The intensity of the staining was graded as 0 (negative, no color), 1 (low positive, light yellow), 2 (positive, brown yellow) or 3 (high positive, brown), and the number of positive cells was graded as 0 (<5%), 1 (5–25%), 2 (25–50%), 3 (51–75%) or 4 (>75%). The final score was defined as staining number score multiplied by staining color score. For lamin B1, p21 or IL-6, the proportion of positive cells was used to quantify the expression of protein in tissues by a blinded investigator.

## H-YGRKKRRQRRRYNLRSRTVLCGTCGQPADKASASGSGAQSPQNCSIM-OH (cysteines drawn unpaired) [UPCP, unique progerin C-terminal peptide]
[1]
  SAC signal response (p-H3): repaired the SAC signal response
IMR90 cells; 10μM, UPCP-0μM = 1, P=0.1549, replicate 1
  Cell survival rate analysis (UPCP-OD/Mock-OD): 0.9983
IMR90 cells; 10μM, UPCP-0μM = 1, P=0.1549, replicate 2
  Cell survival rate analysis (UPCP-OD/Mock-OD): 1.052
IMR90 cells; 10μM, UPCP-0μM = 1, P=0.1549, replicate 3
  Cell survival rate analysis (UPCP-OD/Mock-OD): 1.032
IMR90 cells; 20μM, UPCP-0μM = 1, P=0.2306, replicate 1
  Cell survival rate analysis (UPCP-OD/Mock-OD): 1.032
IMR90 cells; 20μM, UPCP-0μM = 1, P=0.2306, replicate 2
  Cell survival rate analysis (UPCP-OD/Mock-OD): 1.043
IMR90 cells; 20μM, UPCP-0μM = 1, P=0.2306, replicate 3
  Cell survival rate analysis (UPCP-OD/Mock-OD): 1.31
IMR90 cells; 30μM, UPCP-0μM = 1, P=0.4981, replicate 1
  Cell survival rate analysis (UPCP-OD/Mock-OD): 0.9716
IMR90 cells; 30μM, UPCP-0μM = 1, P=0.4981, replicate 2
  Cell survival rate analysis (UPCP-OD/Mock-OD): 1.072
IMR90 cells; 30μM, UPCP-0μM = 1, P=0.4981, replicate 3
  Cell survival rate analysis (UPCP-OD/Mock-OD): 1.021
Lmna^G609G/G609G mice; female
  bodyweight, female: slow down the bodyweight loss
Lmna^G609G/G609G mice; male
  bodyweight, male: increase the bodyweight
[2]; 20 mg kg^–1 i.p. every other day
  fibrosis, heart: reduced fibrosis of lamina propria in the esophagus and heart
[2]; 20 mg kg^–1 i.p., replicate 1
  fibrosis area/ total area, heart: 0.003612 and 0.3612%
[2]; 20 mg kg^–1 i.p., replicate 1, total area 1.938
  fibrosis area, heart: 0.007
[2]; 20 mg kg^–1 i.p., replicate 2, total area 1.976
  fibrosis area, heart: 0.002
[2]; 20 mg kg^–1 i.p., replicate 3, total area 2.43
  fibrosis area, heart: 0.004
